ChEMBL document CHEMBL1201862, “PubChem BioAssay data set” (2004)
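Step 1: Grow cells in 96-well plates. Step 2: Expose to compound for 48 hours at 5 concentrations. Step 3: Interpolate endpoints linearly; if unreached, use highest concentration. GI50 marks 50% less growth.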 Active and inactive are the calls of the source. No stated cut-off is given here; in the data, active = GI50 up to about 1.1 µM and inactive = higher.

Key:
Test in all cases: growth of human tumour cells (NCI), 48 h
A549 = tested on: A549
BT-549 = tested on: BT-549
CCRF-CEM = tested on: CCRF-CEM
COLO 205 = tested on: COLO 205
EKVX = tested on: EKVX
HCT-116 = tested on: HCT-116
HOP-62 = tested on: HOP-62
MDA-N = tested on: MDA-N
MOLT-4 = tested on: MOLT-4
OVCAR-4 = tested on: OVCAR-4
OVCAR-8 = tested on: OVCAR-8
RPMI-8226 = tested on: RPMI-8226
SF-268 = tested on: SF-268
SK-MEL-28 = tested on: SK-MEL-28
SK-MEL-2 = tested on: SK-MEL-2
SK-OV-3 = tested on: SK-OV-3
SR = tested on: SR
UACC-257 = tested on: UACC-257
HL-60 = tested on: HL-60

Compound | GI50 (A549) | GI50 (BT-549) | GI50 (CCRF-CEM) | GI50 (COLO 205) | GI50 (EKVX) | GI50 (HCT-116) | GI50 (HOP-62) | GI50 (MDA-N) | GI50 (MOLT-4) | GI50 (OVCAR-4) | GI50 (OVCAR-8) | GI50 (RPMI-8226) | GI50 (SF-268) | GI50 (SK-MEL-28) | GI50 (SK-MEL-2) | GI50 (SK-OV-3) | GI50 (SR) | GI50 (UACC-257) | GI50 (HL-60)
COc1ccc(NCc2cnc3nc(N)nc(N)c3c2C)cc1 | 0.303 µM (active) | > 100 µM (inactive) | 0.57 µM (active) | 9.35 µM (inactive) | 15.7 µM (inactive) | 0.0785 µM (active) | 1.16 µM (inactive) | 0.174 µM (active) | 0.493 µM (active) | > 53.5 µM (inactive) | 0.167 µM (active) | 5.96 µM (inactive) | 0.618 µM (active) | 8.51 µM (inactive) | > 100 µM (inactive) | 4.34 µM (inactive) | 0.449 µM (active) | 2.58 µM (inactive) | 
C=C(C)C(CC=C(C)C)CC12CC(CC=C(C)C)C(C)(C)C(CC=C(C)C)(C(=O)C(Cc3ccc(O)c(O)c3)=C1O)C2=O (stereo not drawn) | > 100 µM (inactive) | > 100 µM (inactive) | 59.6 µM (inactive) | > 100 µM (inactive) | > 100 µM (inactive) | > 100 µM (inactive) | > 100 µM (inactive) | > 100 µM (inactive) | 50.6 µM (inactive) | > 100 µM (inactive) | > 100 µM (inactive) | > 100 µM (inactive) | > 100 µM (inactive) | > 100 µM (inactive) |  | > 100 µM (inactive) | > 100 µM (inactive) | > 100 µM (inactive) | > 100 µM (inactive)
Cc1cc(C)nc(NS(=O)(=O)c2ccc(NC(=O)NC(F)(F)F)cc2)n1 | > 100 µM (inactive) | > 100 µM (inactive) | > 100 µM (inactive) | > 100 µM (inactive) | > 100 µM (inactive) | > 100 µM (inactive) |  | > 100 µM (inactive) | > 100 µM (inactive) |  | > 100 µM (inactive) | > 100 µM (inactive) | > 100 µM (inactive) | > 100 µM (inactive) | > 100 µM (inactive) | > 100 µM (inactive) | > 100 µM (inactive) | > 100 µM (inactive) | > 100 µM (inactive)
NC(=O)C1=NNc2ccccc2C(=O)N1c1ccccc1 | > 100 µM (inactive) | > 100 µM (inactive) | > 100 µM (inactive) | > 100 µM (inactive) | > 100 µM (inactive) | > 100 µM (inactive) | > 100 µM (inactive) | > 100 µM (inactive) | > 100 µM (inactive) | > 100 µM (inactive) | > 100 µM (inactive) | > 100 µM (inactive) | > 100 µM (inactive) | > 100 µM (inactive) | > 100 µM (inactive) | > 100 µM (inactive) | > 100 µM (inactive) | > 100 µM (inactive) | 
O/N=C1/Nc2cc(Cl)ccc2C(=S)N2CSCC12 (stereo not drawn) | > 100 µM (inactive) | > 100 µM (inactive) | > 100 µM (inactive) | > 100 µM (inactive) | > 100 µM (inactive) | > 100 µM (inactive) | > 100 µM (inactive) | > 100 µM (inactive) | > 100 µM (inactive) | > 100 µM (inactive) | > 100 µM (inactive) | > 100 µM (inactive) | > 100 µM (inactive) | > 100 µM (inactive) | > 100 µM (inactive) | > 100 µM (inactive) | > 100 µM (inactive) | > 100 µM (inactive) | 
Oc1ccc2c(c1)c1c(n2CCN2CCOCC2)-c2ccccc2CC1 |  | 33.6 µM (inactive) | 32.3 µM (inactive) |  | 35.5 µM (inactive) | 37.2 µM (inactive) | 24.7 µM (inactive) | 45.4 µM (inactive) | 23.9 µM (inactive) |  | 33.6 µM (inactive) | 29.8 µM (inactive) | 30 µM (inactive) | 18.6 µM (inactive) | 23.1 µM (inactive) | 42.2 µM (inactive) | 24.8 µM (inactive) | 32.9 µM (inactive) | 42.3 µM (inactive)
O=c1[nH]nc(-c2ccccc2)c2[nH]c(-c3ccccc3)cc12 | > 100 µM (inactive) | > 100 µM (inactive) | > 100 µM (inactive) | > 100 µM (inactive) | > 100 µM (inactive) | > 100 µM (inactive) | > 100 µM (inactive) | > 100 µM (inactive) | 39 µM (inactive) | > 100 µM (inactive) | > 100 µM (inactive) | 88.3 µM (inactive) | > 100 µM (inactive) |  |  | > 100 µM (inactive) | 38.8 µM (inactive) |  | > 100 µM (inactive)
O=Cc1cn(CCCCCn2cc(C=O)c3ccccc32)c2ccccc12 | > 100 µM (inactive) | > 100 µM (inactive) | > 100 µM (inactive) | > 100 µM (inactive) | > 100 µM (inactive) | > 100 µM (inactive) |  | > 100 µM (inactive) | > 100 µM (inactive) |  | > 100 µM (inactive) | > 100 µM (inactive) | 16.7 µM (inactive) |  | > 100 µM (inactive) | > 100 µM (inactive) | > 100 µM (inactive) | > 100 µM (inactive) | > 100 µM (inactive)
CC(=O)Nc1c(S(=O)(=O)c2ccccc2)c(C)c(C)n1Cc1ccccc1 | > 100 µM (inactive) | > 100 µM (inactive) | > 100 µM (inactive) | > 100 µM (inactive) | > 100 µM (inactive) | > 100 µM (inactive) |  | > 100 µM (inactive) | > 100 µM (inactive) | > 100 µM (inactive) | > 100 µM (inactive) | > 100 µM (inactive) | > 100 µM (inactive) | > 100 µM (inactive) | > 100 µM (inactive) | > 100 µM (inactive) | > 10 µM (inactive) | > 100 µM (inactive) | > 100 µM (inactive)
CNc1ccc([S+]([O-])Nc2ccc(OC)cc2)cc1 (stereo not drawn) | 66.2 µM (inactive) | 2.06 µM (inactive) | 46.5 µM (inactive) | 29.2 µM (inactive) | 70.1 µM (inactive) | 66.8 µM (inactive) | > 100 µM (inactive) | > 100 µM (inactive) | 51.8 µM (inactive) | > 100 µM (inactive) | 86.3 µM (inactive) | > 100 µM (inactive) | > 100 µM (inactive) | 93.3 µM (inactive) |  | 49.2 µM (inactive) | > 100 µM (inactive) | > 100 µM (inactive) | 54.6 µM (inactive)
C=C[C@]1(C)CC[C@]2(C)C(CC[C@@]3(C)C2C[C@H](O)[C@H](O)[C@@]3(C)O)C1 (stereo partly drawn) | > 100 µM (inactive) | > 100 µM (inactive) | > 100 µM (inactive) | > 100 µM (inactive) | > 100 µM (inactive) | > 100 µM (inactive) | > 100 µM (inactive) | > 100 µM (inactive) | > 100 µM (inactive) |  | > 100 µM (inactive) | > 100 µM (inactive) | > 100 µM (inactive) | > 100 µM (inactive) | > 100 µM (inactive) | > 100 µM (inactive) | > 100 µM (inactive) | > 100 µM (inactive) | > 100 µM (inactive)
Cc1c(NC(=O)c2cc([N+](=O)[O-])cc([N+](=O)[O-])c2)c(=O)n(-c2ccccc2)n1C | > 100 µM (inactive) | > 100 µM (inactive) | > 100 µM (inactive) | 20.1 µM (inactive) |  | > 100 µM (inactive) | > 100 µM (inactive) | > 100 µM (inactive) | > 100 µM (inactive) | 43.9 µM (inactive) | > 100 µM (inactive) | > 100 µM (inactive) | > 100 µM (inactive) | > 100 µM (inactive) | > 100 µM (inactive) | > 100 µM (inactive) | 69.8 µM (inactive) | 32.8 µM (inactive) | > 100 µM (inactive)
CN1C(=O)C2CCCC(=O)N2c2cccnc21 (stereo not drawn) | > 100 µM (inactive) | > 100 µM (inactive) | > 100 µM (inactive) | > 100 µM (inactive) | > 100 µM (inactive) | > 100 µM (inactive) | > 100 µM (inactive) | > 100 µM (inactive) | > 100 µM (inactive) | > 100 µM (inactive) | > 100 µM (inactive) | > 100 µM (inactive) | > 100 µM (inactive) | > 100 µM (inactive) | 32.4 µM (inactive) |  | > 100 µM (inactive) | > 100 µM (inactive) | > 100 µM (inactive)
CCCCCc1cc2cc3c(c(O)c2c(=O)[nH]1)C1(CCC3)C(=O)c2c(O)ccc(O)c2C1=O | > 100 µM (inactive) | > 100 µM (inactive) | > 100 µM (inactive) | > 100 µM (inactive) | > 100 µM (inactive) | > 100 µM (inactive) | 83.9 µM (inactive) | > 100 µM (inactive) | > 100 µM (inactive) | 88.5 µM (inactive) | 59.3 µM (inactive) | > 100 µM (inactive) | > 100 µM (inactive) | > 100 µM (inactive) | 66.7 µM (inactive) |  | > 100 µM (inactive) | > 100 µM (inactive) | > 100 µM (inactive)
CCOC(=O)c1nc2c3c(ncn2n1)Oc1c(c(-c2ccccc2)nn1-c1ccccc1)C3c1ccc(Cl)cc1 (stereo not drawn) | > 100 µM (inactive) | > 100 µM (inactive) | > 100 µM (inactive) | > 100 µM (inactive) |  | > 100 µM (inactive) | > 100 µM (inactive) | > 100 µM (inactive) |  | > 100 µM (inactive) | > 100 µM (inactive) | > 100 µM (inactive) | > 100 µM (inactive) | > 100 µM (inactive) | > 100 µM (inactive) | > 100 µM (inactive) | > 100 µM (inactive) | > 100 µM (inactive) | > 100 µM (inactive)
BrC(c1cccc2ccccc12)c1cccc2ccccc12 | 26.4 µM (inactive) | 21.4 µM (inactive) |  |  | 16.7 µM (inactive) | 6.61 µM (inactive) | 14.1 µM (inactive) | 15.1 µM (inactive) | > 100 µM (inactive) | 17 µM (inactive) | 17.3 µM (inactive) | > 100 µM (inactive) | 12.1 µM (inactive) | 19.5 µM (inactive) | 14.9 µM (inactive) |  | > 100 µM (inactive) | 19.2 µM (inactive) | 20 µM (inactive)
